According to patent US7094786B2, “Method of treating nausea, vomiting, retching or any combination thereof” (Dynogen Pharmaceuticals, Inc., priority 2003, dated 2006):

Assays:
[1] = tested on: Monoamine Oxidase-A (MAO-A); conditions: cited from earlier work
[2] = biological target: T1, 5-HT3 receptor (Mus musculus, UniProt P23979); conditions: radioligand binding; read-out: Ki, affinity for the 5-HT3 receptor; cited from earlier work
T1 construct: host or cells: N1E-115 mouse neuroblastoma cells
T1 sequence (P23979 24-489): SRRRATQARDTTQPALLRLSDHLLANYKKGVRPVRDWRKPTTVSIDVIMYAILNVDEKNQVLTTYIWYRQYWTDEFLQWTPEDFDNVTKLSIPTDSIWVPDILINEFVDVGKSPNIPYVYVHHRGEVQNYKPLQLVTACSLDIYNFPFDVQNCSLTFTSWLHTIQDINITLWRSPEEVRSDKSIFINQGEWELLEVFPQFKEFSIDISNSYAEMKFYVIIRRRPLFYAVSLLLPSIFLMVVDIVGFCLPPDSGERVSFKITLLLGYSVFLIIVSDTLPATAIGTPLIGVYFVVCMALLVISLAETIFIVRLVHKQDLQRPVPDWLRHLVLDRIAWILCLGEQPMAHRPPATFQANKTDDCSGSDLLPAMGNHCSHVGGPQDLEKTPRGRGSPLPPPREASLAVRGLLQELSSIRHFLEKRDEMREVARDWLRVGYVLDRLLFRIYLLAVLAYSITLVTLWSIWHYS

[3] = tested on: muscarinic receptors; conditions: cited from earlier work
[4] = tested on: α1, α2, β1, β2, 5-HT1, 5-HT1A, 5-HT1c, 5-HT2, 5-HT4, 5-HT6, 5-HT7, D1, D2, Muscarinic, M1, M2, M3, Nicotonic, H1, H2, GABA-A, GABA-B, BZP, Opiate, CRF and …; conditions: all receptors tested other than 5-HT3; read-out: IC50, radioligand binding to additional receptors; cited from earlier work
[5] = tested on: Monoamine Oxidase-B (MAO-B); conditions: cited from earlier work
[6] = tested on: cisplatin-induced retching and vomiting; assay: Cisplatin-induced emesis in the ferret; assay type: in vivo, ferret (Mustela putariofuro); conditions: for Latency: first emetic event; for Effect on latency of the first emetic response (in words): across doses tested i.p.; for Effect on number of cisplatin-induced emetic events (in words): across doses tested i.p. (ondansetron 5, 10 mg/kg; MCI-225 1, 10, 30 mg/kg); for Retches (360 min) / Vomits (360 min) / Total Events: male ferrets; for Total Events: 360 min
Experimental: The ability of MCI-225 to reduce retching and vomiting in an accepted model of cytotoxin-induced emesis in the ferret was assessed. Specifically, the experiments described herein investigated the effect of MCI-225 on retching and vomiting induced by cisplatin. Ondansetron was used as a positive control in the model, in view of its known antiemetic activity. Adult male ferrets (Mustela putariofuro) weighing 1200–1880 g were purchased from Triple F Farms (Sayre, Pa.) and housed in individual cages at standardized conditions (12:12 h light/dark cycle and 21–23° C.). Prior to the experiments, the ferrets were allowed a 7–10 day acclimatization period to the animal facility. The ferrets were fed a carnivore diet with free access to food and water throughout the course of the study. The use of the ferret model of emesis and the drug treatment were preapproved in accordance with facility standards. A cisplatin solution was prepared by adding preheated (70° C.) saline to cisplatin powder (Sigma-Aldrich Co.) and stirring or sonicating at 40° C. until dissolved. Following administration of the cisplatin and either MCI-225, ondansetron or vehicle alone, the occurrence of retching and vomiting was monitored for a period of 6 hours. Retching was defined as the number of forceful rhythmic contractions of the abdomen occurring with the animal in characteristic posture, but not resulting in the expulsion of upper gastrointestinal tract contents (Watson et al., British Journal of Pharmacology, 115(1): 84–94 (1994)). Vomiting was defined as the forceful oral expulsion of upper gastrointestinal contents. The latency of the retching or vomiting response and the number of episodes were recorded for each animal and summarized for each experimental group (Wright et al., Infect. Immun., 68(4): 2386–9 (2000)). Following one hour of acclimation to the observation cage, ferrets received an intraperitoneal (i.p.) injection of cisplatin (5 mg/kg in 5 mL) followed in about 2 minutes by i.p. injection of a single dose of MCI-225 or ondansetron (Rudd and Naylor, Eur. J. Pharmacol., 322: 79–82 (1997)). Dose-response effects of MCI-225 dosed at 1, 10 and 30 mg/kg i.p. in a 0.5 ml/kg solution or ondansetron dosed at 5 and 10 mg/kg i.p. in a 0.5 mL/kg solution were studied. Each animal received a single-dose drug treatment. In addition, three animals received an initial dose (30 mg/kg i.p.) and a second MCI-225 injection (30 mg/kg i.p.) 180 minutes following the initial dose. Control animals were treated with cisplatin followed by vehicle alone (propanediol dosed in a 0.5 mL/kg solution). All groups were randomized.

[7] = 10 mg/kg i.p. single dose after cisplatin 5 mg/kg i.p.
[8] = 5 mg/kg i.p. single dose after cisplatin 5 mg/kg i.p.

Row | SMILES | Inhibition of MAO-A activity [1] | Ki [2] | Anticholinergic activity [3] | IC50 [4] | Inhibition of MAO-B activity [5] | Latency ([6]; 1 mg/kg i.p. single dose after cisplatin 5 mg/kg i.p.) | Latency [6, 7] | Latency ([6]; 30 mg/kg b.i.d i.p. (two doses, 180-min interval) after cisplatin 5 mg/kg i.p.) | Latency ([6]; 30 mg/kg i.p. single dose after cisplatin 5 mg/kg i.p.) | Effect on latency of the first emetic response (in words) [6] | Effect on number of cisplatin-induced emetic events (in words) [6] | Overall antiemetic efficacy (conclusion) ([6]; similar dose range as ondansetron) | Emetic response (in words) ([6]; two doses of 30 mg/kg, b.i.d at a 180-min interval) | Latency [6, 8] | Retches (360 min) [6, 8] | Vomits (360 min) [6, 8] | Total Events [6, 8] | Retches (360 min) [6, 7] | Vomits (360 min) [6, 7] | Total Events [6, 7]
1 | Cc1cc2c(-c3ccccc3F)nc(N3CCNCC3)nc2s1 [MCI-225, 4-(2-fluorophenyl)-6-methyl-2-(1-piperazinyl)thieno[2,3-d]pyrimidine] | did not inhibit | < 100 nM | substantially no anticholinergic activity | > 1000 nM | did not inhibit | 186 ± 35 min | 192 ± 57 min | 360 ± 0 min | 287 ± 38 min | increase in the latency of the response | dose-dependent reduction in the retches and vomits | effective at reducing retching and vomiting | eliminated |  |  |  |  |  |  | 
2 | Cc1nccn1CC1CCc2c(c3ccccc3n2C)C1=O (centres unmarked) [Ondansetron, ondansetron] |  |  |  |  |  |  | 313 ± 32 min |  |  | increase in the latency of the first emetic response | dose-dependently reduced the number of emetic events |  |  | 288 ± 4 min | 11.2 ± 7.0 | 0.3 ± 0.2 | 11.5 ± 7.2 | 2.4 ± 1.6 | 0.0 ± 0.0 | 2.4 ± 1.6
